According to patent US10940141B1, “Methods for the administration of certain VMAT2 inhibitors” (Neurocrine Biosciences, Inc., priority 2019, dated 2021):

Assays:
[1] = cited from earlier work
[2] = Phase 1, open-label, single-dose PK study of valbenazine in subjects with normal renal function or severe renal impairment; format: in vivo, human; settings: for effect of severe renal impairment on AUC0-∞ / effect of severe renal impairment on Cmax: single dose valbenazine 40 mg (free base equivalent as ditosylate), fasted, severe renal impairment compared to normal renal function; for effect of renal status on protein binding: severe renal impairment vs normal renal function
Procedure: (§1) This was a Phase 1, open-label, single-dose, PK study of valbenazine to assess the safety and PK of valbenazine and its metabolites in subjects with normal renal function or severe renal impairment. A total of 16 subjects (8 with severe renal impairment and 8 with normal renal function) received a single dose of valbenazine 40 mg (free base equivalent as the ditosylate salt) under fasted conditions.

[3] = Safety and tolerability in the Phase 1 single-dose study (TEAEs, laboratory tests, vital signs, ECG); format: in vivo, human
Procedure: as §1

[4] = valbenazine 40 mg single dose, all 16 subjects

## COc1cc2c(cc1OC)[C@H]1C[C@@H](OC(=O)[C@@H](N)C(C)C)[C@H](CC(C)C)CN1CC2 [Valbenazine ditosylate, L-Valine, (2R,3R,11bR)-1,3,4,6,7,11b-hexahydro-9,10-dimethoxy-3-(2-methylpropyl)-2H-benzo[a]quinolizin-2-yl ester, 4-methylbenzenesulfonate (1:2)]
[1]
  solubility in water: slightly soluble

## COc1cc2c(cc1OC)[C@H]1C[C@@H](O)[C@H](CC(C)C)CN1CC2 [NBI-98782, (2R, 3R,11bR)-3-isobutyl-9,10-dimethoxy-1,3,4,6,7,11b-hexahydro-2H-pyrido[2,1-a]isoquinolin-2-ol]
[2]
  effect of severe renal impairment on AUC0-∞: no clinically meaningful effect
  effect of severe renal impairment on Cmax: no clinically meaningful effect
[2]; single dose valbenazine 40 mg
  effect of renal status on protein binding: little effect

## COc1cc2c(cc1OC)[C@H]1C[C@@H](OC(=O)[C@@H](N)C(C)C)[C@H](CC(C)C)CN1CC2 [valbenazine, (S)-2-amino-3-methyl-butyric acid (2R, 3R,11bR)-3-isobutyl-9,10-dimethoxy-1,3,4,6,7,11b-hexahydro-2H-pyrido[2,1-a]isoquinolin-2-yl ester]
[2]; single dose valbenazine 40 mg
  urine clearance in subjects with severe renal impairment compared with normal renal function: reduction
  effect of renal status on protein binding: little effect
[2]
  effect of severe renal impairment on AUC0-∞: no clinically meaningful effect
  effect of severe renal impairment on Cmax: no clinically meaningful effect
[3]; normal renal function group
  treatment-related TEAE headache: 1 subject
  treatment-related TEAE somnolence: 1 subject
[3]; severe renal impairment group
  treatment-related TEAE somnolence: 1 subject
  treatment-related TEAE vision blurred: 1 subject
[3]; valbenazine 40 mg single dose
  subjects with QTcF increase from baseline >60 msec: No subject
  subjects with QTcF interval >480 msec: No subject
[3]; valbenazine 40 mg single dose, 8 subjects per group (normal renal function; severe renal impairment)
  subjects who experienced TEAEs, each of the renal function groups: 2 (25.0%) subjects
[3]; valbenazine 40 mg single dose, 16 subjects (8 normal renal function, 8 severe renal impairment)
  tolerability: well tolerated
[3]; [4]
  deaths, serious or severe TEAEs, or discontinuations due to a TEAE: no deaths, serious or severe TEAEs, or discontinuations due to a TEAE
  subjects who experienced TEAEs, overall: 4 (25.0%) subjects
  treatment-related TEAEs reported: 3 subjects
[3]; valbenazine 40 mg single dose, during the study
  changes in clinical laboratory tests, vital sign measurements, weight, or ECG parameters: no clinically significant changes

## COc1cc2c(cc1OC)[C@H]1C[C@@H](OC(=O)[C@@H](N)C(C)(C)O)[C@H](CC(C)C)CN1CC2 [NBI-136110]
[2]
  effect of severe renal impairment on AUC0-∞: no clinically meaningful effect
  effect of severe renal impairment on Cmax: no clinically meaningful effect
